Our source for the IC50 values is patent publication US9604998B2, “Inhibitors of the renal outer medullary potassium channel” (MERCK SHARP & DOHME CORP., priority 2013, dated 2017).

The structures appear in SMILES notation. Counter-ions that a name gives are not always drawn. Like-named read-outs stand apart in the source and are kept apart here.

The target of one test is Kir1.1 (ROMK1) (Homo sapiens (Human), UniProt P48048). Kind of test: Electrophysiology Assay (whole cell voltage clamp, IonWorks Quattro). It counts as cell-based. As to conditions: block during voltage step to 0 mV. In a few lines:
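CHO cells stably expressing the channel, induced overnight with 1 mM sodium butyrate, were recorded in amphotericin-perforated patch mode. The test pulse was a 100 ms step to 0 mV from −70 mV, then a −70 to +70 mV ramp, applied before and after a 6 min compound incubation. Current amplitudes were compared.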

A further test concerns the target hROMK (hKir1.1) (Homo sapiens (Human), UniProt P48048). The experiment in a line: Thallium Flux Assay (ROMK channel functional thallium flux, FLIPR-Tetra). It counts as cell-based.
Setting [1] is: Chinese hamster ovary cells stably expressing Kir1.1, read-out: Electrophysiology IC50.
The mark [2] stands for this setting: HEK293 cells stably expressing hROMK (hKir1.1), read-out: Thallium Flux IC50.

Chain of hROMK (hKir1.1) (P48048 whole entry): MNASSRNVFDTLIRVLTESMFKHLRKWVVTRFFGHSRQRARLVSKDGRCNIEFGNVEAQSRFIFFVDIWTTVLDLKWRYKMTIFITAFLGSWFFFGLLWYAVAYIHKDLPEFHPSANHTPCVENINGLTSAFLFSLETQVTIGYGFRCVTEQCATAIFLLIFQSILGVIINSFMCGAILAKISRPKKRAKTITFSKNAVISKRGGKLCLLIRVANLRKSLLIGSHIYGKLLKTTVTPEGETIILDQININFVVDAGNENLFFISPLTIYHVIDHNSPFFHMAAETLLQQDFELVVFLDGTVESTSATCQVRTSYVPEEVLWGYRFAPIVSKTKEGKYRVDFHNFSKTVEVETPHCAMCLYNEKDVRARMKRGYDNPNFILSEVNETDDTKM
Chain of Kir1.1 (ROMK1) (P48048 whole entry, species assumed): as the sequence (P48048 whole entry) above

In the case of `Cc1c([C@@H]2CN3CCN(C4CCc5cc(C#N)ccc5C4)C[C@H]3CO2)ccc2c1COC2=O` (stereo partly drawn) [Example 100, (3R,9aS)-8-(6-cyano-1,2,3,4-tetrahydronaphthalen-2-yl)-3-(4-methyl-1-oxo-1,3-dihydro-2-benzofuran-5-yl)octahydropyrazino[2,1-c][1,4]oxazin-5-ium trifluoroacetate], the figures for the IC50 on Kir1.1 (ROMK1) (setting [1]) and at hROMK (hKir1.1) (setting [2]) were 0.21 µM and 0.03 µM, respectively.

Consider `Cc1c(CCN2CCN3C[C@@H](c4ccc5c(c4)CCOC5=O)OC[C@@H]3C2)ccc2c1COC2=O` [Example 73], for which the IC50 at Kir1.1 (ROMK1) (setting [1]) was found to be 0.3 µM; at hROMK (hKir1.1) (setting [2]) it was 0.57 µM.

Take `Cc1cc2c(cc1C(O)CN1CCN3C[C@@H](c4ccc5c(c4C)COC5=O)OC[C@@H]3C1)COC2=O` (single isomer, unassigned) [Example 43]: the IC50 at Kir1.1 (ROMK1) (setting [1]) was 0.13 µM; on hROMK (hKir1.1) (setting [2]), 0.21 µM.

In the case of `Cc1c([C@@H](O)CN2CCN3C[C@H](c4ccc(C#N)c(F)c4)OC[C@H]3C2)ccc2c1COC2=O` [Example 28, (3S,9aR)-3-(4-cyano-3-fluorophenyl)-8-[(2R)-2-hydroxy-2-(4-methyl-1-oxo-1,3-dihydro-2-benzofuran-5-yl)ethyl]octahydropyrazino[2,1-c][1,4]oxazin-8-ium chloride], the IC50 stood at 0.09 µM at Kir1.1 (ROMK1) (setting [1]) and 0.19 µM on hROMK (hKir1.1) (setting [2]).

For the compound `Cc1c([C@@H]2CN3CCN(CCc4ccc(-n5cnnn5)nc4)C[C@H]3CO2)ccc(F)c1C#N` [Example 92], the concentration for half-maximal inhibition (IC50) came to 0.08 µM at Kir1.1 (ROMK1) (setting [1]) and 0.27 µM on hROMK (hKir1.1) (setting [2]).

For the compound `Cc1c(CCN2CCN3C[C@H](c4ccc5c(c4Cl)COC5=O)OC[C@@H]3C2)ccc2c1COC2=O` [Example 89], the IC50 turned out to be 0.1 µM on Kir1.1 (ROMK1) (setting [1]) and 0.2 µM at hROMK (hKir1.1) (setting [2]).

As for `COc1cc(C(O)CN2CCN3C[C@H](c4ccc5c(c4C)COC5=O)OC[C@H]3C2)c(F)cc1C#N` (stereo partly drawn) [Example 36, (3S,9aR)-8-[2-(4-cyano-2-fluoro-5-methoxyphenyl)-2-hydroxyethyl]-3-(4-methyl-1-oxo-1,3-dihydro-2-benzofuran-5-yl)octahydropyrazino[2,1-c][1,4]oxazin-5-ium chloride], the values for the IC50 on Kir1.1 (ROMK1) (setting [1]) and on hROMK (hKir1.1) (setting [2]) were 0.12 µM and 0.39 µM, respectively.

For the compound `CCOc1cc(CCN2CCN3C[C@@H](c4ccc5c(c4C)COC5=O)OC[C@@H]3C2)ccc1C#N` [Example 83], the IC50 worked out at 0.09 µM on Kir1.1 (ROMK1) (setting [1]) and 0.12 µM on hROMK (hKir1.1) (setting [2]).

Take `Cc1c([C@@H]2CN3CCN(CC(O)c4ccc5c(c4)C[C@H](C)OC5=O)C[C@H]3CO2)ccc2c1COC2=O` (single isomer, unassigned) [Example 44]: the IC50 on Kir1.1 (ROMK1) (setting [1]) was 0.13 µM; on hROMK (hKir1.1) (setting [2]), 0.27 µM.

On to `Cc1c([C@@H]2CN3CCN(C[C@H](O)c4ccc5c(c4)COC5=O)C[C@@H]3CN2)ccc(F)c1C#N` [Example 107], for which the IC50 at Kir1.1 (ROMK1) (setting [1]) came out at 0.2 µM; on hROMK (hKir1.1) (setting [2]), 0.16 µM.

`COc1cc([C@H]2CN3CCN(C[C@H](O)c4ccc5c(c4C)COC5=O)C[C@@H]3CO2)cc(F)c1C#N` [Example 53, (3S,9aR)-3-(4-cyano-3-fluoro-5-methoxyphenyl)-8-[(2R)-2-hydroxy-2-(4-methyl-1-oxo-1,3-dihydro-2-benzofuran-5-yl)ethyl]octahydropyrazino[2,1-c][1,4]oxazin-8-ium chloride]: the IC50 on Kir1.1 (ROMK1) (setting [1]) stood at 0.08 µM; at hROMK (hKir1.1) (setting [2]), 0.24 µM.

Take `Cc1c([C@@H]2CN3CCN(CC(O)c4ccc(-n5cnnn5)nc4)C[C@H]3CO2)ccc(F)c1C#N` (single isomer, unassigned) [Example 16]: the IC50 was 0.08 µM at Kir1.1 (ROMK1) (setting [1]) and 0.56 µM on hROMK (hKir1.1) (setting [2]).

As for `COc1c(C#N)ccc(CCN2CCN3C[C@@H](c4ccc5c(c4C)COC5=O)OC[C@@H]3C2)c1C` [Example 82], the figures for the IC50 at Kir1.1 (ROMK1) (setting [1]) and on hROMK (hKir1.1) (setting [2]) were 0.08 µM and 0.06 µM, respectively.

For the compound `Cc1c([C@@H]2CN3CCN(CC(O)c4ccc5c(c4C4CC4)COC5=O)C[C@H]3CO2)ccc2c1COC2=O` (single isomer, unassigned) [Example 50], the IC50 at Kir1.1 (ROMK1) (setting [1]) was found to be 0.25 µM; at hROMK (hKir1.1) (setting [2]), 0.44 µM.

As for `Cc1c([C@H]2CN3CCN(CC(O)c4ccc(-n5cnnn5)nc4)C[C@H]3CO2)ccc(F)c1C#N` (single isomer, unassigned) [Example 18], the IC50 turned out to be 0.1 µM at Kir1.1 (ROMK1) (setting [1]) and 0.29 µM at hROMK (hKir1.1) (setting [2]).

As to `COc1cc(C(O)CN2CCN3C[C@@H](c4ccc5c(c4C)COC5=O)OC[C@@H]3C2)c(F)cc1C#N` (single isomer, unassigned) [Example 37], the values for the IC50 at Kir1.1 (ROMK1) (setting [1]) and on hROMK (hKir1.1) (setting [2]) were 0.11 µM and 0.47 µM, respectively.

Consider `Cc1cc2c(cc1C(O)CN1CCN3C[C@@H](c4ccc(F)c(C#N)c4C)OC[C@@H]3C1)COC2=O` (single isomer, unassigned) [Example 25, trifluoroacetate], for which the IC50 stood at 0.19 µM at Kir1.1 (ROMK1) (Electrophysiology IC50, Chinese hamster ovary cells stably expressing Kir1.1) and 0.34 µM on hROMK (hKir1.1) (Thallium Flux IC50, HEK293 cells stably expressing hROMK (hKir1.1)).

`Cc1c([C@@H]2CN3CCN(CCc4ccc5c(c4)COC5=O)C[C@H]3CN2)ccc(F)c1C#N` [Example 103]: the concentration for half-maximal inhibition (IC50) at Kir1.1 (ROMK1) (setting [1]) was 0.06 µM; at hROMK (hKir1.1) (setting [2]), 0.14 µM.

For the compound `Cc1c(CCN2CCN3C[C@H](c4ccc5c(c4)COC5=O)OC[C@@H]3C2)ccc2c1COC2=O` [Example 70], the IC50 was 0.03 µM at Kir1.1 (ROMK1) (setting [1]) and 0.12 µM at hROMK (hKir1.1) (setting [2]).

With `Cc1c([C@H]2CN3CCN(CCc4ccc5c(c4)COC5=O)C[C@H]3CO2)ccc2c1COC2=O` [Example 65], the IC50 turned out to be 0.11 µM on Kir1.1 (ROMK1) (setting [1]) and 0.17 µM on hROMK (hKir1.1) (setting [2]).

`COc1cc(CCN2CCN3C[C@H](c4ccc5c(c4C)COC5=O)OC[C@H]3C2)c(F)cc1C#N` [Example 97]: the IC50 at Kir1.1 (ROMK1) (setting [1]) came to 0.28 µM; at hROMK (hKir1.1) (setting [2]), 0.35 µM.
